Data on two molecules can be found in patent US11573241B2, “Total cellular iron as a marker of cancer stem cells and uses thereof” (Institut National de la Sante et de la Recherche Medicale …, priority 2016, dated 2023).

The subject of experiment [1] is HMLER CD24^low cells. As to the kind of experiment: Immunoblotting of iron homeostasis regulatory proteins. As to conditions: for level of autophagy marker protein LC3-II: 24 h; for levels of IRP2, TfR and ferritin: immunoblotting. The format is cell-based, human.
Protocol: Immunoblotting. Cells were treated as indicated, then washed twice with PBS and lysed with 2× Laemmli buffer. Cell extracts were heated at 95° C. for 5 min, sheared through a 26-gauge needle and quantified with a Nanodrop 2000 (Thermo Scientific). Protein lysates (˜100 μg) were resolved by SDS-PAGE electrophoresis and transferred onto PVDF membranes (Amersham). Membranes were blocked with 5% BSA, 0.1% Tween-20/TBS for 1 h. The blots were then probed with the relevant primary antibodies in 5% BSA, 0.1% Tween-20/TBS at 4° C. overnight with gentle agitation. Membranes were washed with 0.1% Tween-20/TBS for 30 min and were incubated with secondary antibodies for 1 h at RT. Antigens were detected by ECL (Amersham). Imaging was performed using a ChemiDoc™ XRS+ System (Biorad).
Experiment [2] deals with HMLER CD24^low cells. As to the kind of experiment: Lysosomal membrane permeabilization assay. It is filed as cell-based, human. As to conditions: 48 h. The procedure: Lysosomal membrane permeabilization assay. Lysosomal membrane permeabilization (LMP) was assessed by monitoring the release of FITC-Dextran (FD10S, 10 kDa, Sigma) from lysosomes. In brief, cells were incubated with 1 mg/mL FITC-Dextran for 2 h at 37° C. Cells were washed, chased with culture medium for 2 h and treated as indicated for 48 h or with CQ (positive control) for 3 h. Cells were then fixed with 2% formaldehyde/PBS, washed with PBS, mounted and acquired with a 60×APO TIRF oil immersion objective of Nipkow Spinning Disk confocal system.

Experiment [3] relates to HMLER CD24^low and iCSCL-10A2 cells. Briefly: Intracellular GSH level quantification. As to conditions: 0.5 μM. The format is cell-based. As to the method:
Intracellular GSH level quantification. Cells were treated with Sal or AM5 (0.5 μM) as indicated, then harvested and counted. The intracellular GSH level was measured using a commercial kit (ab205811, Abcam) according to the manufacturer's protocol.

The subject of experiment [4] is U2OS, HMLER CD24^low, and iCSCL-10A2 cells. Briefly: Lysosomal ROS in cells. The format is cell-based. The following applies: all cell lines.
For experiment [5], the system named is HMLER CD24^low and iCSCL-10A2 cells. Briefly: Lipid ROS measurements (Bodipy-C11). It is filed as cell-based. As to conditions: 0.5 μM, 48 h. The procedure:
Lipid ROS measurements. Cells were treated with Sal or AM5 (0.5 μM) as indicated. Then, cells were trypsinized and washed with PBS. Subsequently, cells were incubated with Bodipy-C11® (D3861, Thermo Fisher Scientific, 2 μM) at 37° C. for 60 min. Next, cells were washed twice with PBS. […] The data were processed using Cell Quest software (BD Biosciences) and FlowJo software (FLOWJO, LLC). For cell imaging, cells were treated as indicated in the main figure (Bodipy-C11®, 1 μM, 1 h), then fixed with formaldehyde (2% in PBS, 12 min) and analyzed by fluorescence microscopy (ex. 488 nm).

Experiment [6] relates to cells from treated PDX 1 and 2. As to the kind of experiment: Limiting dilution assay, tumor-seeding capacity (ELDA). It is filed as in vivo, NOD/SCID mice. As to conditions: re-implantation into secondary mice. The text has this:
Limiting dilution assay. Cells from 4-week treated mice were re-implanted into one to four secondary NOD/SCID mice with injection of 10, 50, 500 or 5000 cells for each treated tumor to functionally evaluate the proportion of residual CSCs in each treatment group (Unt., Doc, Sal, AM5) for the PDX 1 and 2. Each mouse that developed a tumor reaching a size of 10 mm was considered as a tumor-bearing mouse.
Estimation of number of CSCs in vivo. The number of mammary gland outgrowths obtained in a fat pad after cell re-implantation is currently used to evaluate the number of stem cells able to repopulate this fat pad. It is based on self-renewal and differentiation abilities, two hallmarks of stem cells. In the same manner, estimation of the number of CSCs can be obtained from tumor outgrowth data collected after limited dilution re-implantation of each group of treatments, based on tumor-initiating capacities of CSCs. For calculation, an online tool is available using Extreme Limiting Dilution Analysis (ELDA) (http://bioinf.wehi.edu.au/software/elda/) for limiting dilution analysis based on the Poisson single-hit model according to the number of outgrowths observed and the number of pat pad re-implanted for each cell dilution.

Experiment [7] deals with HMLER CD24^low cells. As to the kind of experiment: Annexin V/PI assay. The format is cell-based, human. The following applies: 0.5 μM, 72 h. As to the method:
Annexin V/PI assay. Cells were treated as indicated. After treatment, cell death was quantified using Annexin V-FITC/Propidium Iodide (PI) assay according to the manufacturer's protocol (FITC Annexin V Apoptosis Detection Kit II, 556570, BD Pharmingen™) and analyzed by a LSRFortessa™ flow cytometer (BD Bioscience, San Jose, Calif.). The data were processed using Cell Quest software (BD Biosciences).

Entries after “also recorded” stand apart in the source; their conditions may differ.

On to `C#CCN[C@@H]1C=C[C@]2(O[C@H]([C@@H](CC)C(=O)[C@@H](C)[C@@H](O)[C@H](C)C3O[C@@H](C(CC)C(=O)O)CC[C@@H]3C)[C@@H](C)C[C@H]2C)O[C@@]12CC[C@@](C)([C@H]1CC[C@](O)(CC)[C@H](C)O1)O2` (stereo partly shown) [AM5, Sal-Propargylamine], for which, in the experiment on HMLER CD24^low cells [1], the “level of autophagy marker protein LC3-II” value is given as “increased”; the “levels of IRP2, TfR and ferritin” value is “increased levels of iron-responsive element-binding protein 2 (IRP2) and transferrin receptor (TfR) along with reduced levels of ferritin”. Also, the “lysosomal membrane permeabilization (release of lysosomal dextran)” value in the experiment with HMLER CD24^low cells [2] is given as “induced a permeabilization of the lysosomal membrane”. Also, the “endogenous levels of GSH” value in experiment [3] is “diminution of endogenous levels of the ROS scavenger glutathione (GSH)”. For the same molecule, in experiment [4], the “lysosomal ROS” value was “significant increase in lysosomal ROS”. For the same molecule, the “lipid ROS (Bodipy-C11 staining)” value in experiment [5] is “presence of lipid peroxidation”. Also, the “tumor-seeding capacity of tumor cells treated in vivo” value in experiment [6] is “decreased tumor-seeding capacity; also recorded: more potent than both Sal and Doc”. In addition, the “form of cell death” value in the experiment with HMLER CD24^low cells [7] is reported as “ferroptosis”.

As for `CC[C@@H](C(=O)[C@@H](C)[C@@H](O)[C@H](C)[C@@H]1O[C@@H]([C@@H](CC)C(=O)O)CC[C@@H]1C)[C@H]1O[C@]2(C=C[C@@H](O)[C@]3(CC[C@@](C)([C@H]4CC[C@](O)(CC)[C@H](C)O4)O3)O2)[C@H](C)C[C@@H]1C` [Sal, salinomycin, reference compound], in the experiment with HMLER CD24^low cells [1], the “level of autophagy marker protein LC3-II” value is on record as “increased”; the “levels of IRP2, TfR and ferritin” value is “increased levels of iron-responsive element-binding protein 2 (IRP2) and transferrin receptor (TfR) along with reduced levels of ferritin”. For the same molecule, in the experiment on HMLER CD24^low cells [2], the “lysosomal membrane permeabilization (release of lysosomal dextran)” value is “induced a permeabilization of the lysosomal membrane”. The “endogenous levels of GSH” value in experiment [3] is “diminution of endogenous levels of the ROS scavenger glutathione (GSH)”. For the same molecule, in experiment [4], the “lysosomal ROS” value is recorded as “significant increase in lysosomal ROS”. In addition, the “lipid ROS (Bodipy-C11 staining)” value in experiment [5] is “presence of lipid peroxidation”. In experiment [6], the “tumor-seeding capacity of tumor cells treated in vivo” value was “decreased tumor-seeding capacity”. Besides, the “form of cell death” value with HMLER CD24^low cells [7] is “ferroptosis”.
